Assay results reported in PubChem BioAssay (NCI).
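Step 1: Grow cells in 96-well plates. Step 2: Expose to compound for 48 hours at 5 concentrations. Step 3: Interpolate endpoints linearly; if unreached, use highest concentration. The concentration for 50% growth inhibition is given as GI50. TGI marks complete inhibition of growth.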

Experiments:
Experiment in all cases: DTP human tumour cell line panel, 48 h
M14 melanoma = test system: M14 melanoma
SNB-19 CNS = test system: SNB-19 CNS
HCT-15 colon = test system: HCT-15 colon
RXF 393 renal = test system: RXF 393 renal
CCRF-CEM leukemia = test system: CCRF-CEM leukemia
SF-268 CNS = test system: SF-268 CNS
OVCAR-3 ovarian = test system: OVCAR-3 ovarian
UACC-257 melanoma = test system: UACC-257 melanoma
A498 renal = test system: A498 renal

| SMILES | TGI (M14 melanoma) [µM] | TGI (SNB-19 CNS) [µM] | TGI (HCT-15 colon) [µM] | TGI (RXF 393 renal) [µM] | TGI (CCRF-CEM leukemia) [µM] | TGI (SF-268 CNS) [µM] | TGI (OVCAR-3 ovarian) [µM] | TGI (UACC-257 melanoma) [µM] | TGI (A498 renal) [µM] | GI50 (M14 melanoma) [µM] | GI50 (SNB-19 CNS) [µM] | GI50 (HCT-15 colon) [µM] | GI50 (RXF 393 renal) [µM] | GI50 (CCRF-CEM leukemia) [µM] | GI50 (SF-268 CNS) [µM] | GI50 (OVCAR-3 ovarian) [µM] | GI50 (UACC-257 melanoma) [µM] | GI50 (A498 renal) [µM] |
| --- | --- | --- | --- | --- | --- | --- | --- | --- | --- | --- | --- | --- | --- | --- | --- | --- | --- | --- |
| O=C1c2ccccc2C2(O)c3cc4ccccc4cc3OC12O (stereo not given) | > 100 | > 100 | > 100 | 97.6 | > 100 | > 100 | > 100 | 89.3 | > 100 | – | – | – | – | – | – | – | – | – |
| O=c1[nH]c(=O)n(C2CC(O)C(CO)O2)cc1CO (stereo not given) | > 100 | > 100 | > 100 | > 100 | > 100 | > 100 | > 100 | > 100 | > 100 | > 100 | 2.9 | > 100 | > 100 | > 100 | > 100 | > 100 | > 100 | > 100 |
| CCCCCCC[CH2][Sn]1([CH2]CCCCCCC)[O]C(=O)c2cccnc2[S]1 | > 100 | > 100 | > 100 | > 100 | > 100 | – | > 100 | > 100 | > 100 | > 100 | > 100 | > 100 | > 100 | > 100 | – | > 100 | > 100 | > 100 |
| O=C(O)CSc1n[nH]c(-c2ccccc2)n1 | > 100 | > 100 | > 100 | > 100 | > 100 | > 100 | > 100 | – | > 100 | – | – | – | – | – | – | – | – | – |
| Cc1c(Cl)cccc1N1C(=O)C(Cl)=C(Cl)C1=O | > 100 | > 100 | > 100 | 97.2 | 27.8 | > 100 | > 100 | > 100 | > 100 | – | – | – | – | – | – | – | – | – |
| CCC1C2C=CC(CC2)N1S(=O)(=O)c1ccc(C)cc1 (stereo not given) | > 100 | > 100 | 73.5 | – | > 100 | 67.3 | > 100 | 93.5 | > 100 | – | – | – | – | – | – | – | – | – |
| CCOC(=O)C1(c2ccccc2)CCC(=O)CC1 | > 100 | > 100 | > 100 | > 100 | > 100 | > 100 | > 100 | > 100 | > 100 | – | – | – | – | – | – | – | – | – |
| COc1ccc(/C(=N\NC(=O)C(N)=O)C(c2ccc(OC)cc2)C2(O)C(=O)Nc3c(Cl)cccc32)cc1 (stereo not given) | > 100 | > 100 | – | > 100 | > 100 | > 100 | > 100 | > 100 | – | – | – | – | – | – | – | – | – | – |
| COc1ccc(NC(=O)/C(N=O)=C(/C)O)cc1 | > 100 | > 100 | 36.8 | > 100 | > 100 | > 100 | – | > 100 | > 100 | – | – | – | – | – | – | – | – | – |
| O=C(O)[C@H](NS(=O)(=O)c1ccc2ccccc2c1)c1ccccc1 | > 100 | > 100 | > 100 | > 100 | > 100 | > 100 | – | > 100 | > 100 | – | – | – | – | – | – | – | – | – |
| Cc1ccc(Cn2c(C)nc3c2C(=O)c2ccccc2C3=O)cc1 | > 100 | 49.8 | 60 | 28.7 | > 100 | 36.9 | 36.6 | 60.8 | – | – | – | – | – | – | – | – | – | – |
| Cc1ccc(S(=O)(=O)N/N=C/c2oc(-c3ccncc3)c(-c3ccncc3)c2[N+](=O)[O-])cc1 | > 100 | > 100 | > 100 | > 100 | > 100 | > 100 | > 100 | > 100 | > 100 | – | – | – | – | – | – | – | – | – |
| COC1[C@@H](OC(C)=O)[C@@H](NC(=O)C(Cl)(Cl)Cl)C(I)[C@@H](N2C(=O)c3ccccc3C2=O)[C@H]1OC (stereo not given in full) | > 100 | > 100 | > 100 | > 100 | > 100 | > 100 | – | > 100 | > 100 | – | – | – | – | – | – | – | – | – |
| CCOC(=O)C(C)(C)Oc1ccc2c(C)c(-c3ccc(Cl)cc3)c(=O)oc2c1 | > 100 | > 100 | > 100 | > 100 | > 100 | > 100 | > 100 | > 100 | > 100 | – | – | – | – | – | – | – | – | – |
| O=C(NCCCCN=c1cccccc1NCCCCNC(=O)OCc1ccccc1)OCc1ccccc1 | 29.4 | 79.8 | 23.2 | 40.4 | 47.8 | 63.8 | 29.5 | 29.3 | – | – | – | – | – | – | – | – | – | – |
| CC1=C2CCCC2=C/C(=N/Nc2ccc([N+](=O)[O-])cc2[N+](=O)[O-])CC1 | > 100 | > 100 | – | > 100 | > 100 | > 100 | > 100 | > 100 | – | – | – | – | – | – | – | – | – | – |
| O=[N+]([O-])c1ccc(-n2nnc(C3=NCCN3)c2-c2ccc(Cl)cc2)cc1 | > 100 | > 100 | > 100 | > 100 | > 100 | > 100 | > 100 | > 100 | > 100 | – | – | – | – | – | – | – | – | – |

| SMILES | TGI (M14 melanoma) [µM] | TGI (SNB-19 CNS) [µM] | TGI (HCT-15 colon) [µM] | TGI (RXF 393 renal) [µM] | TGI (CCRF-CEM leukemia) [µM] | TGI (SF-268 CNS) [µM] | TGI (OVCAR-3 ovarian) [µM] | TGI (UACC-257 melanoma) [µM] | TGI (A498 renal) [µM] | GI50 (M14 melanoma) [µM] | GI50 (SNB-19 CNS) [µM] | GI50 (HCT-15 colon) [µM] | GI50 (RXF 393 renal) [µM] | GI50 (CCRF-CEM leukemia) [µM] | GI50 (SF-268 CNS) [µM] | GI50 (OVCAR-3 ovarian) [µM] | GI50 (UACC-257 melanoma) [µM] | GI50 (A498 renal) [µM] |
| --- | --- | --- | --- | --- | --- | --- | --- | --- | --- | --- | --- | --- | --- | --- | --- | --- | --- | --- |
| O=C(N/N=C1/C(=O)N(c2ccc(Cl)cc2Cl)C(=O)C(=O)C1c1nc2ccccc2o1)c1ccccc1O (stereo not given) | 76.2 | > 100 | > 100 | – | > 100 | > 100 | 52.4 | – | 88.2 | – | – | – | – | – | – | – | – | – |
| O=C(Nc1cc(Cl)ccc1Cl)c1cc2cccc(Cl)c2oc1=O | > 100 | – | > 100 | > 100 | > 100 | – | > 100 | > 100 | – | – | – | – | – | – | – | – | – | – |
| CC(=O)n1c2c(c(=O)n1-c1ccccc1)S(=O)CCC2 (stereo not given) | > 100 | > 100 | > 100 | > 68.4 | 26.4 | > 100 | > 100 | > 100 | > 100 | – | – | – | – | – | – | – | – | – |
| COc1ccc2oc(-c3cccnc3)cc(=O)c2c1 | > 100 | > 100 | – | > 100 | > 100 | > 100 | > 100 | > 100 | > 100 | – | – | – | – | – | – | – | – | – |
| COc1ccc(-c2cc(-c3ccccc3)c(C#N)c(=O)n2C2OC(CO)C(O)C(O)C2O)cc1 (stereo not given) | > 100 | > 100 | > 100 | > 100 | > 100 | > 100 | > 100 | > 100 | > 100 | – | – | – | – | – | – | – | – | – |
| c1ccc(SC2CCSc3ccccc3C2Sc2ccccc2)cc1 (stereo not given) | > 100 | > 100 | > 100 | – | > 100 | > 100 | > 100 | > 100 | > 100 | – | – | – | – | – | – | – | – | – |
| COc1cccc(/C=N/[N-]C(=O)c2ccncc2)c1[O-].[Cu+2].[OH3+] | > 100 | > 100 | > 100 | – | > 100 | > 100 | > 100 | > 100 | > 100 | 61.3 | > 100 | 62.8 | – | 27.9 | 28 | 33.7 | > 100 | 58.4 |
| O=c1n(-c2ccccc2)c(=O)n2n1C1C=CC2C2C(C1)C2(Cl)Cl (stereo not given) | > 100 | > 100 | > 100 | > 100 | > 100 | > 100 | > 100 | > 100 | > 100 | – | – | – | – | – | – | – | – | – |
| CCOC(=O)NC(=O)c1cn(CCOC(=O)NCCCCCCNC(=O)OCCn2cc(C(=O)NC(=O)OCC)c(=O)[nH]c2=O)c(=O)[nH]c1=O | > 100 | > 100 | > 100 | > 100 | > 100 | > 100 | > 100 | > 100 | > 100 | – | – | – | – | – | – | – | – | – |
| COC(=O)[C@]1(C)CCCC2(C)C1CC[C@H]1C=C(C)[C@H]3CCC12C3 (stereo not given in full) | > 100 | > 100 | > 100 | > 100 | > 100 | > 100 | > 100 | > 100 | – | – | – | – | – | – | – | – | – | – |
| CC(=O)O[C@H]1CCC2[C@@H]3CCC4=C(O)c5nocc5C[C@]4(C)C3CC[C@@]21C (stereo not given in full) | > 100 | > 100 | > 100 | > 100 | > 100 | > 100 | > 100 | > 100 | > 100 | – | – | – | – | – | – | – | – | – |
| CCOc1ccc(N2C(=O)/C(=C/c3ccc(N(CCC#N)CCC#N)cc3)N=C2c2cc([N+](=O)[O-])ccc2Cl)cc1 | 61.3 | > 100 | > 100 | > 100 | – | > 100 | 56.5 | – | > 100 | – | – | – | – | – | – | – | – | – |
| Cc1ccc(NC(=O)C2C(=O)N(c3ccc(C)c(C)c3)C(=O)C2N=N)cc1C (stereo not given) | > 100 | > 100 | > 100 | > 100 | – | > 100 | > 100 | > 100 | > 100 | – | – | – | – | – | – | – | – | – |
| O=C1[C@@H]2C3c4ccccc4C([C@@H]2C(=O)N1c1ccccc1)S3(=O)=O | > 100 | > 100 | > 100 | > 100 | > 100 | > 100 | > 100 | > 100 | – | – | – | – | – | – | – | – | – | – |
| O=C(CSc1nnc(-c2ccc(N=Cc3ccc(Cl)cc3)cc2)o1)Nc1ccc(Cl)cc1 | > 100 | > 100 | > 100 | > 100 | > 100 | > 100 | – | > 100 | – | – | – | – | – | – | – | – | – | – |
| O=c1[nH]cc(COCCO)c(=O)[nH]1 | > 100 | > 100 | > 100 | > 100 | > 100 | > 100 | > 100 | > 100 | > 100 | – | – | – | – | – | – | – | – | – |
